In brackets after ≈: the same amount, converted by molar mass. Activity calls are given as the source filed them. The calls are words filed in the database; no cut-off is given here.
What was measured:
Mus musculus [1] = organism: Mus musculus; assay: Wound healing activity in Kunming mouse full-thickness excisional wound model assessed as increase in wound closure at 1 10^-7M, TOP BID and measured upto 8 days by image analysis; assay type: functional, organism-based; conditions: time <= 8.0 day
Escherichia coli [2] = assay: Antimicrobial activity against Escherichia coli ATCC 25922 assessed as inhibition of bacterial growth incubated for 18 hrs by serial dilution method; assay type: functional
Escherichia coli [3] = assay: Antimicrobial activity against Escherichia coli ML-35 assessed as inhibition of bacterial growth incubated for 18 hrs by serial dilution method; assay type: functional
Pseudomonas aeruginosa [4] = assay: Antimicrobial activity against Pseudomonas aeruginosa ATCC 27853 assessed as inhibition of bacterial growth incubated for 18 hrs by serial dilution method; assay type: functional
Pseudomonas aeruginosa [5] = assay: Antimicrobial activity against Pseudomonas aeruginosa PAO1 assessed as inhibition of bacterial growth incubated for 18 hrs by serial dilution method; assay type: functional
Staphylococcus aureus [6] = assay: Antimicrobial activity against Staphylococcus aureus ATCC 25923 assessed as inhibition of bacterial growth incubated for 18 hrs by serial dilution method; assay type: functional
Staphylococcus aureus [7] = assay: Antimicrobial activity against Staphylococcus aureus ATCC 29213 assessed as inhibition of bacterial growth incubated for 18 hrs by serial dilution method; assay type: functional
Bacillus subtilis = assay: Antimicrobial activity against Bacillus subtilis ATCC 23857 assessed as inhibition of bacterial growth incubated for 18 hrs by serial dilution method; assay type: functional
[8] = Hemolytic activity in mouse erythrocytes assessed as haemoglobin release at 400 uM incubated for 1 hrs by microplate reader method; assay type: toxicity, cell-based, Erythrocyte; conditions: read-out: Activity
RAW264.7 [9] = assay: Anti-inflammatory activity in LPS-stimulated mouse RAW264.7 cells assessed as inhibition of NO production at 16 uM incubated for 24 hrs by Griess reagent based assay; assay type: functional, cell-based
[10] = Cytotoxicity against mouse RAW264.7 cells assessed as cell survival rate at 16 uM incubated for 24 hrs by MTT assay; assay type: toxicity, cell-based; conditions: read-out: Survival
RAW264.7 [11] = assay: Anti-inflammatory activity against LPS-stimulated mouse RAW264.7 cells assessed as reduction in TNF-alpha mRNA expression level at 1 to 16 uM incubated for 4 hrs by RT-qPCR analysis; assay type: functional, cell-based; conditions: dose 1-16 µM
RAW264.7 [12] = assay: Anti-inflammatory activity against LPS-stimulated mouse RAW264.7 cells assessed as reduction in IL-1beta mRNA expression level at 1 to 16 uM incubated for 4 hrs by RT-qPCR analysis; assay type: functional, cell-based; conditions: dose 1-16 µM
RAW264.7 [13] = assay: Anti-inflammatory activity against LPS-stimulated mouse RAW264.7 cells assessed as reduction in IL-6 mRNA expression level at 1 to 16 uM incubated for 4 hrs by RT-qPCR analysis; assay type: functional, cell-based; conditions: dose 1-16 µM
Lipopolysaccharide (LPS) = assay: Binding affinity to Escherichia coli O111:B4 LPS assessed as dissociation constant by ITC assay
Mus musculus [14] = organism: Mus musculus; assay: Wound healing activity in Kunming mouse full-thickness excisional wound model with splints assessed as increase in wound healing rate at 1 10^-7M, TOP BID and measured upto 8 days by image analysis; assay type: functional, organism-based; conditions: time <= 8.0 day
NIH3T3 [15] = assay: Induction of cell proliferation in mouse NIH3T3 cells assessed as increase in cell viability at 0.1 to 1000 nM incubated for 48 hrs by MTT assay; assay type: functional, cell-based; conditions: dose 0.1-1000 nM
NIH3T3 [16] = assay: Induction of cell migration in mouse NIH3T3 cells assessed as […] at 0.1 to 1000 nM incubated for 48 hrs by phase-contrast microscopy based scratch wound healing assay; assay type: functional; conditions: dose 0.1-1000 nM
HEK293 [17] = assay: Induction of cell proliferation in human HEK293 cells expressing NK1R assessed as increase in cell viability at 0.1 to 1000 nM incubated for 48 hrs by MTT assay; assay type: functional, cell-based; conditions: dose 0.1-1000 nM
HEK293 [18] = assay: Induction of cell proliferation in human HEK293 cells assessed as increase in cell viability at 0.1 to 1000 nM incubated for 48 hrs by MTT assay; assay type: functional, cell-based; conditions: dose 0.1-1000 nM
RAW264.7 [19] = assay: Cytotoxicity against mouse RAW264.7 cells assessed as reduction in cell viability at 1 to 16 uM incubated for 24 hrs by MTT assay; assay type: toxicity, cell-based; conditions: raw264.7, 24 h, dose 1-16 µM
Mus musculus [20] = organism: Mus musculus; assay: Antimicrobial activity in Staphylococcus aureus ATCC 25923 infected Kunming mouse excisional wound model assessed as decrease in bacterial growth at 1 10^-4M, TOP BID and measured upto 8 days by image analysis; assay type: functional, organism-based; conditions: time <= 8.0 day
Mus musculus [21] = organism: Mus musculus; assay: Wound healing activity in Staphylococcus aureus ATCC 25923 infected Kunming mouse excisional wound model assessed as increase in wound repair at 1 10^-4M, TOP BID and measured upto 8 days by image analysis; assay type: functional, organism-based; conditions: time <= 8.0 day
Staphylococcus aureus [22] = assay: Bactericidal activity against Staphylococcus aureus ATCC 25923 assessed as reduction in colony forming unit at 2 times MIC and measured after 120 mins by time-kill kinetics assay; assay type: functional, organism-based

Molecule	Activity (Mus musculus [1])	MIC (Escherichia coli [2])	MIC (Escherichia coli [3])	MIC (Pseudomonas aeruginosa [4])	MIC (Pseudomonas aeruginosa [5])	MIC (Staphylococcus aureus [6])	MIC (Staphylococcus aureus [7])	MIC (Bacillus subtilis)	hemolysis at 1 h, 400 µM [8]	inhibition (RAW264.7 [9])	viability at 24 h, 16 µM [10]	further results
H-LKKWLKKWTPKASQFFGLM-NH2	Active	2 µM	2 µM	2 µM	4 µM	32 µM	32 µM	2 µM	2.94%	Active	> 90%	Activity (RAW264.7 [11]): Dose-Dependent Effect; Activity (RAW264.7 [12]): Dose-Dependent Effect; Activity (RAW264.7 [13]): Dose-Dependent Effect; Kd (Lipopolysaccharide (LPS)): 311 µM; Activity (Mus musculus [14]): Active; Activity (NIH3T3 [15]): Active; Activity (NIH3T3 [16]): Active; Activity (HEK293 [17]): Active; Activity (HEK293 [18]): inactive
H-LKKWTGKASQFFGLM-NH2	Active	64 µM	64 µM	128 µM	128 µM	> 128 µM	> 128 µM	64 µM	1.01%	inactive	–	Activity (RAW264.7 [19]): Non-Toxic
H-LKKWTLKASQFFGLM-NH2	Active	16 µM	16 µM	64 µM	64 µM	> 128 µM	128 µM	16 µM	11.2%	Active	> 90%	–
CN[C@H](CC(C)C)C(=O)N[C@H]1C(=O)N[C@@H](CC(N)=O)C(=O)N[C@H]2C(=O)N[C@H]3C(=O)N[C@H](C(=O)N[C@H](C(=O)O)c4cc(O)cc(O)c4-c4cc3ccc4O)[C@H](O)c3ccc(c(Cl)c3)Oc3cc2cc(c3O[C@@H]2O[C@H](CO)[C@@H](O)[C@H](O)[C@H]2O[C@H]2C[C@](C)(N)[C@H](O)[C@H](C)O2)Oc2ccc(cc2Cl)[C@H]1O [VANCOMYCIN]	–	64 µM (≈ 92.8 µg/mL)	64 µM (≈ 92.8 µg/mL)	> 128 µM	> 128 µM	< 1 µM	< 1 µM	< 1 µM	–	–	–	Activity (Mus musculus [20]): Active; Activity (Mus musculus [21]): Active; Activity (Staphylococcus aureus [22]): inactive
